Assay results as given in ChEMBL document CHEMBL1201862, “PubChem BioAssay data set” (2004).
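Exposure lasted 48 hours, with cells grown in 96-well plates and compounds tested at five concentrations. The concentration for 50% growth inhibition is given as GI50.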 Calls of active or inactive are those of the source. Cut-off read from the data, not from the text of the source: active = GI50 up to about 1.1 µM and inactive = higher. Where a SMILES comes first, the peptide text is derived from it. [ ]: non-standard residue; d: D form. The star is where a group is joined. Phe(4-NO2) = N[CH](Cc1ccc([N+](=O)[O-])cc1)C(=O)O; Boc = CC(C)(C)OC(=O)*; OBn = c1ccc(CO*)cc1

Assays:
Assay in all cases: NCI-60 cell line screen, 48 h
T47D = test system: T47D
UACC-62 = test system: UACC-62
UO-31 = test system: UO-31
HL-60 = test system: HL-60
BT-549 = test system: BT-549
SK-MEL-2 = test system: SK-MEL-2
MOLT-4 = test system: MOLT-4
SR = test system: SR
SK-MEL-5 = test system: SK-MEL-5
SK-MEL-28 = test system: SK-MEL-28
OVCAR-3 = test system: OVCAR-3
KM12 = test system: KM12
PC-3 = test system: PC-3
U-251 = test system: U-251
NCI/ADR-RES = test system: NCI/ADR-RES
A549 = test system: A549
NCI-H23 = test system: NCI-H23
K562 = test system: K562
SF-295 = test system: SF-295
MCF7 = test system: MCF7
CAKI-1 = test system: CAKI-1
OVCAR-4 = test system: OVCAR-4
COLO 205 = test system: COLO 205
SNB-19 = test system: SNB-19
ACHN = test system: ACHN
EKVX = test system: EKVX
SK-OV-3 = test system: SK-OV-3
NCI-H460 = test system: NCI-H460
Malme-3M = test system: Malme-3M
SF-539 = test system: SF-539
NCI-H522 = test system: NCI-H522
MDA-MB-231 = test system: MDA-MB-231
HCT-116 = test system: HCT-116
HT-29 = test system: HT-29
RPMI-8226 = test system: RPMI-8226
CCRF-CEM = test system: CCRF-CEM
HOP-62 = test system: HOP-62
HCT-15 = test system: HCT-15
Hs-578T = test system: Hs-578T
RXF 393 = test system: RXF 393
DU-145 = test system: DU-145
HOP-92 = test system: HOP-92
MDA-N = test system: MDA-N
IGROV-1 = test system: IGROV-1
OVCAR-5 = test system: OVCAR-5
SN12C = test system: SN12C
SNB-75 = test system: SNB-75
A498 = test system: A498
OVCAR-8 = test system: OVCAR-8
M14 = test system: M14
UACC-257 = test system: UACC-257
SW-620 = test system: SW-620
LOX IMVI = test system: LOX IMVI
HCC 2998 = test system: HCC 2998
NCI-H226 = test system: NCI-H226
SF-268 = test system: SF-268
MDA-MB-435 = test system: MDA-MB-435
786-0 = test system: 786-0
TK-10 = test system: TK-10

COC(=O)CCC(NC(=O)OC(C)(C)C)C(=O)NC(Cc1ccc([N+](=O)[O-])cc1)C(=O)NCC(=O)OCc1ccccc1 (centres undefined) (Boc-Glu(OMe)-[Phe(4-NO2)]-Gly-OBn; configuration not given here)
GI50 (T47D): > 100 µM (inactive) | GI50 (UACC-62): > 31.6 µM (inactive) | GI50 (UO-31): > 100 µM (inactive) | GI50 (HL-60): > 74.1 µM (inactive) | GI50 (BT-549): 20.4 µM (inactive) | GI50 (SK-MEL-2): > 77.1 µM (inactive) | GI50 (MOLT-4): > 100 µM (inactive) | GI50 (SR): > 53.8 µM (inactive) | GI50 (SK-MEL-5): > 100 µM (inactive) | GI50 (SK-MEL-28): > 100 µM (inactive) | GI50 (OVCAR-3): > 100 µM (inactive) | GI50 (KM12): > 100 µM (inactive) | GI50 (PC-3): > 100 µM (inactive) | GI50 (U-251): 55.3 µM (inactive) | GI50 (NCI/ADR-RES): > 80.7 µM (inactive) | GI50 (A549): > 100 µM (inactive) | GI50 (NCI-H23): > 78.9 µM (inactive) | GI50 (K562): > 100 µM (inactive) | GI50 (SF-295): > 48.5 µM (inactive) | GI50 (MCF7): > 100 µM (inactive) | GI50 (CAKI-1): > 65.6 µM (inactive) | GI50 (OVCAR-4): > 92.3 µM (inactive) | GI50 (COLO 205): 38.7 µM (inactive) | GI50 (SNB-19): > 55.7 µM (inactive) | GI50 (ACHN): > 100 µM (inactive) | GI50 (EKVX): > 60.8 µM (inactive) | GI50 (SK-OV-3): > 82.2 µM (inactive) | GI50 (NCI-H460): > 100 µM (inactive) | GI50 (Malme-3M): > 100 µM (inactive) | GI50 (SF-539): 28.4 µM (inactive) | GI50 (NCI-H522): > 100 µM (inactive) | GI50 (MDA-MB-231): > 60 µM (inactive) | GI50 (HCT-116): > 100 µM (inactive) | GI50 (HT-29): > 100 µM (inactive) | GI50 (RPMI-8226): > 100 µM (inactive) | GI50 (CCRF-CEM): 99.3 µM (inactive) | GI50 (HOP-62): 27.8 µM (inactive) | GI50 (HCT-15): > 100 µM | GI50 (Hs-578T): 23 µM (inactive) | GI50 (RXF 393): 26.9 µM (inactive) | GI50 (DU-145): > 100 µM (inactive) | GI50 (HOP-92): 42.4 µM (inactive) | GI50 (MDA-N): > 100 µM (inactive) | GI50 (IGROV-1): > 100 µM (inactive) | GI50 (OVCAR-5): > 100 µM (inactive) | GI50 (SN12C): > 100 µM (inactive) | GI50 (SNB-75): 18.6 µM (inactive) | GI50 (A498): > 100 µM (inactive) | GI50 (OVCAR-8): 46.7 µM (inactive) | GI50 (M14): > 100 µM (inactive) | GI50 (UACC-257): > 100 µM (inactive) | GI50 (SW-620): > 100 µM (inactive) | GI50 (LOX IMVI): > 48.2 µM (inactive) | GI50 (HCC 2998): 99.8 µM (inactive) | GI50 (NCI-H226): > 64.1 µM (inactive) | GI50 (SF-268): 37.2 µM (inactive) | GI50 (MDA-MB-435): > 100 µM (inactive) | GI50 (786-0): 45.5 µM (inactive) | GI50 (TK-10): > 100 µM (inactive)
